Assay results published in ChEMBL document CHEMBL1201862, “PubChem BioAssay data set” (2004).
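In this assay, cells in 96-well plates receive the compound at five concentrations for 48 hours. Endpoints are linearly interpolated between the surrounding concentrations. GI50 is the concentration that inhibits growth by half.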 Activity calls are given as the source filed them. Rule as the data show it: active = GI50 up to about 1.1 µM and inactive = higher.

Experiments:
Experiment in all cases: NCI anticancer screen, dose series, 48 h
UACC-62 = system: UACC-62
HCT-116 = system: HCT-116
NCI-H460 = system: NCI-H460
SK-MEL-2 = system: SK-MEL-2
ACHN = system: ACHN
SK-MEL-28 = system: SK-MEL-28
HL-60 = system: HL-60
MOLT-4 = system: MOLT-4
NCI-H226 = system: NCI-H226
UO-31 = system: UO-31
SNB-19 = system: SNB-19
NCI-H23 = system: NCI-H23
A498 = system: A498
SN12C = system: SN12C
Malme-3M = system: Malme-3M
COLO 205 = system: COLO 205
786-0 = system: 786-0

Measured: GI50

CCO/N=[N+](\[O-])N(CC)CC
inactive: UACC-62 > 100 µM | HCT-116 > 100 µM | NCI-H460 > 100 µM | SK-MEL-2 > 100 µM | ACHN > 100 µM | SK-MEL-28 > 100 µM | HL-60 > 100 µM | MOLT-4 > 100 µM | NCI-H226 > 100 µM | UO-31 > 100 µM | SNB-19 > 100 µM | NCI-H23 > 100 µM | A498 > 100 µM | SN12C > 100 µM

BrC/C=C/C[P+](c1ccccc1)(c1ccccc1)c1ccccc1
inactive: Malme-3M 12.4 µM | COLO 205 4.53 µM | UACC-62 9.04 µM | HCT-116 3.97 µM | NCI-H460 7.46 µM | SK-MEL-2 10.8 µM | ACHN 12.2 µM | SK-MEL-28 33.3 µM | HL-60 2.54 µM | 786-0 10.3 µM | MOLT-4 > 100 µM | UO-31 34.2 µM | SNB-19 21.3 µM | NCI-H23 32.3 µM | SN12C 19.5 µM

CCCN(CCCCC(NC(C)=O)C(=O)NCc1ccccc1)C(=O)NC (stereo not drawn)
inactive: Malme-3M > 100 µM | COLO 205 > 100 µM | UACC-62 > 100 µM | HCT-116 > 100 µM | NCI-H460 > 100 µM | SK-MEL-2 > 100 µM | ACHN > 100 µM | SK-MEL-28 > 100 µM | 786-0 > 100 µM | MOLT-4 > 100 µM | NCI-H226 > 100 µM | UO-31 > 100 µM | SNB-19 > 100 µM | NCI-H23 > 100 µM | A498 > 100 µM | SN12C > 100 µM

CN(C)CCC1(C2=CCCC2)CC/C(=C\c2ccccc2Cl)C1=O (stereo not drawn)
inactive: Malme-3M 14.5 µM | COLO 205 16.2 µM | UACC-62 14.6 µM | HCT-116 8.41 µM | NCI-H460 13.2 µM | SK-MEL-2 13.5 µM | ACHN 17.3 µM | SK-MEL-28 13.1 µM | HL-60 4.41 µM | 786-0 12.6 µM | MOLT-4 4.57 µM | UO-31 7.24 µM | SNB-19 14.3 µM | NCI-H23 15.2 µM | A498 14.1 µM | SN12C 13.4 µM

Cn1nc2ccc3nccc(NCCNCCCl)c3c2n1
inactive: Malme-3M > 100 µM | COLO 205 > 100 µM | UACC-62 > 100 µM | HCT-116 > 100 µM | NCI-H460 > 100 µM | SK-MEL-2 > 100 µM | ACHN > 100 µM | SK-MEL-28 > 100 µM | HL-60 > 100 µM | MOLT-4 > 100 µM | NCI-H226 > 100 µM | UO-31 > 100 µM | SNB-19 > 100 µM | SN12C > 100 µM

NC1=NS(=O)(=O)Nc2nc(-c3ccc([N+](=O)[O-])o3)[nH]c21
inactive: Malme-3M 16.7 µM | COLO 205 > 10 µM | UACC-62 15.9 µM | HCT-116 4.58 µM | NCI-H460 20.2 µM | SK-MEL-2 16.5 µM | ACHN 16.9 µM | SK-MEL-28 16 µM | HL-60 1.9 µM | 786-0 15.6 µM | MOLT-4 9.62 µM | UO-31 16.2 µM | SNB-19 16.7 µM | NCI-H23 19.6 µM | A498 76.6 µM | SN12C 17.7 µM

COc1ccc(/C(Cl)=C(\C=O)c2ccc(Cl)cc2)cc1OC
inactive: Malme-3M 34.9 µM | COLO 205 3.77 µM | UACC-62 5.97 µM | HCT-116 4.33 µM | NCI-H460 3.54 µM | SK-MEL-2 3.71 µM | ACHN 3.18 µM | HL-60 2.55 µM | MOLT-4 2.12 µM | NCI-H226 4.59 µM | UO-31 4.68 µM | SNB-19 6.73 µM | NCI-H23 3.01 µM | A498 23.7 µM | SN12C 3.72 µM

Nc1n[n+](-c2ccccc2)no1
inactive: Malme-3M 34.7 µM | COLO 205 45.3 µM | UACC-62 5.37 µM | HCT-116 28.3 µM | NCI-H460 27.6 µM | ACHN 8.49 µM | HL-60 14.9 µM | 786-0 52.1 µM | MOLT-4 13.3 µM | NCI-H226 > 100 µM | UO-31 83.4 µM | SNB-19 > 100 µM | NCI-H23 65.3 µM | A498 46 µM | SN12C 82.4 µM

Cc1nc(-c2cccnc2)sc1C(=O)/C=C/c1cccc([N+](=O)[O-])c1
inactive: Malme-3M > 100 µM | COLO 205 > 100 µM | UACC-62 > 100 µM | NCI-H460 > 100 µM | SK-MEL-2 > 100 µM | SK-MEL-28 > 100 µM | HL-60 > 100 µM | 786-0 > 100 µM | MOLT-4 > 100 µM | NCI-H226 > 100 µM | UO-31 > 100 µM | NCI-H23 > 100 µM | A498 > 100 µM | SN12C > 100 µM

O=C(CC(=O)c1ccc([N+](=O)[O-])cc1)C(=O)Nc1nccs1
inactive: Malme-3M > 100 µM | UACC-62 > 100 µM | NCI-H460 > 100 µM | SK-MEL-2 > 100 µM | ACHN > 100 µM | SK-MEL-28 > 81.5 µM | HL-60 > 100 µM | 786-0 > 100 µM | MOLT-4 > 100 µM | NCI-H226 > 100 µM | UO-31 > 100 µM | SNB-19 > 100 µM | NCI-H23 > 100 µM | SN12C > 100 µM

O=C(Nc1ccc(Cl)cc1Cl)c1c/c(=N\O)c2ccc(O)cc2o1
inactive: Malme-3M > 100 µM | COLO 205 > 100 µM | UACC-62 > 100 µM | HCT-116 > 100 µM | NCI-H460 > 100 µM | ACHN > 100 µM | SK-MEL-28 > 100 µM | HL-60 > 100 µM | 786-0 > 100 µM | MOLT-4 > 100 µM | NCI-H226 > 100 µM | UO-31 > 100 µM | SNB-19 > 100 µM | NCI-H23 > 100 µM | A498 > 100 µM | SN12C > 100 µM

COc1cc(OC)c([C@@H]2OC(=O)C3C2C(=O)O[C@H]3c2cc(OC)c(OC)cc2OC)cc1OC (stereo partly drawn)
inactive: COLO 205 > 100 µM | UACC-62 > 100 µM | HCT-116 > 100 µM | NCI-H460 > 100 µM | SK-MEL-2 > 100 µM | ACHN > 100 µM | SK-MEL-28 > 100 µM | HL-60 88.9 µM | 786-0 > 100 µM | MOLT-4 > 100 µM | UO-31 > 100 µM | SNB-19 > 100 µM | NCI-H23 > 100 µM | A498 > 100 µM | SN12C > 100 µM

O=S1(=O)OCCOS(=O)(=O)C1Cl
inactive: Malme-3M > 100 µM | COLO 205 > 100 µM | UACC-62 82.6 µM | HCT-116 > 100 µM | SK-MEL-2 > 100 µM | SK-MEL-28 > 100 µM | HL-60 > 100 µM | 786-0 > 100 µM | MOLT-4 > 100 µM | NCI-H226 > 100 µM | UO-31 > 100 µM | SNB-19 > 100 µM | NCI-H23 > 100 µM | A498 > 100 µM | SN12C > 100 µM

COc1ccc(/C(=N/O)C(c2ccc(OC)cc2)C2C(=O)Oc3ccccc32)cc1 (stereo not drawn)
inactive: Malme-3M 63.1 µM | COLO 205 1.66 µM | UACC-62 82 µM | HCT-116 58.6 µM | NCI-H460 71.3 µM | SK-MEL-2 38.5 µM | ACHN 70.6 µM | SK-MEL-28 78.2 µM | HL-60 52.5 µM | 786-0 > 100 µM | MOLT-4 > 100 µM | NCI-H226 37.2 µM | UO-31 35.5 µM | NCI-H23 40.3 µM | A498 > 100 µM | SN12C 84.7 µM

C=CCCC(OCOCCOC)c1cc(C)c(O[Si](C)(C)C(C)(C)C)c(C)c1 (stereo not drawn)
inactive: Malme-3M 19.6 µM | COLO 205 16.7 µM | UACC-62 10.7 µM | NCI-H460 13.9 µM | SK-MEL-2 15.8 µM | ACHN 13.2 µM | SK-MEL-28 19.5 µM | HL-60 3.28 µM | 786-0 14.9 µM | MOLT-4 4.4 µM | NCI-H226 13.5 µM | UO-31 11.7 µM | SNB-19 6.32 µM | NCI-H23 14.5 µM | A498 22.8 µM | SN12C 15.6 µM

COC(=O)C(C#N)C1NC(=O)c2ccccc21 (stereo not drawn)
inactive: Malme-3M > 100 µM | COLO 205 > 100 µM | UACC-62 > 100 µM | HCT-116 > 100 µM | NCI-H460 > 100 µM | ACHN > 100 µM | SK-MEL-28 > 100 µM | HL-60 > 100 µM | 786-0 > 100 µM | MOLT-4 > 100 µM | NCI-H226 > 100 µM | UO-31 > 100 µM | SNB-19 > 100 µM | NCI-H23 > 100 µM | A498 > 100 µM | SN12C > 100 µM

O=c1cc(-c2ccccc2)oc2cc(OCCCOc3ccc4c(=O)cc(-c5ccccc5)oc4c3)ccc12
inactive: Malme-3M > 100 µM | COLO 205 > 100 µM | UACC-62 > 100 µM | HCT-116 > 100 µM | NCI-H460 > 100 µM | SK-MEL-2 > 100 µM | ACHN > 100 µM | SK-MEL-28 > 100 µM | HL-60 > 100 µM | 786-0 > 100 µM | MOLT-4 > 100 µM | NCI-H226 > 100 µM | SNB-19 > 100 µM | NCI-H23 > 100 µM | SN12C > 100 µM

C=C1C(OC(C)=O)CC(OC(C)=O)C2(C)C(OC(C)=O)C(OC(C)=O)C3=C(C)C(OC(=O)/C=C/c4ccccc4)CC(C(OC(C)=O)C12)C3(C)C (stereo not drawn)
inactive: Malme-3M 59.3 µM | COLO 205 > 100 µM | UACC-62 > 100 µM | HCT-116 > 100 µM | NCI-H460 > 100 µM | SK-MEL-2 55.6 µM | ACHN 35.5 µM | HL-60 > 100 µM | 786-0 30.8 µM | MOLT-4 > 100 µM | NCI-H226 67.3 µM | UO-31 > 100 µM | SNB-19 51.8 µM | A498 61.1 µM | SN12C > 100 µM
